Source: BindingDB's records for doi:10.7270/Q2H70D5W (University of Pittsburgh, 2007)

Molecular target: Gag-Pol polyprotein (Human immunodeficiency virus type 1 group M subtype B (isolate HXB2), UniProt P04585)
Test: concentration-response of HIV-1 RNase H blockers – biochemical, probe assessment, dose response (AID 652)
Settings: pH 8; 23 °C

Structure (SMILES) | IC50 [µM]
O=c1[nH]c(=O)n(-c2ccc(F)cc2)c(O)c1C=Nc1ccccc1N1CCCC1 [(5E)-1-(4-fluorophenyl)-5-[[2-(1-pyrrolidinyl)anilino]methylidene]-1,3-diazinane-2,4,6-trione] | 23.1
CN(C)c1ccc(NC=C2C(=O)NC(=O)N(CCC3=CCCCC3)C2=O)cc1 [(5Z)-1-[2-(cyclohexen-1-yl)ethyl]-5-[[[4-(dimethylamino)phenyl]amino]methylidene]-1,3-diazinane-2,4,6-trione] | 3.8
CCOC(=O)N1CCC2=C(C#N)C(=N)C(C#N)(C#N)[C@H](c3ccc(OC(C)C)c(OCC)c3)[C@H]2C1 [(8S,8aR)-6-amino-5,7,7-tricyano-8-(3-ethoxy-4-isopropoxy-phenyl)-1,3,8,8a-tetrahydroisoquinoline-2-carboxylic acid ethyl ester] | 21.7
CCCCC[C@H](O)C=C[C@H]1C=CC(=O)[C@@H]1C/C=C\CCCC(=O)O [(Z)-7-[(1R,5S)-2-oxidanylidene-5-[(E,3S)-3-oxidanyloct-1-enyl]cyclopent-3-en-1-yl]hept-5-enoic acid] | 1.06
CC(Cc1ccc(O)c(O)c1)C(C)Cc1ccc(O)c(O)c1 (stereo not given) [LOX inhibitor, N/A] | 0.664
CCC1(C)Cc2c(sc3c2c(=O)n(C)c2nnc(SCc4ccc5c(c4)OCO5)n32)CO1 (stereo not given) [MLS000030507] | 23
CC1CCN(S(=O)(=O)c2ccc(NC(=O)Cn3nnc(-c4ccccc4)n3)cc2)CC1 [MLS000032813] | 22
O=C1c2sc3nc4ccccc4n3c2C(=O)N1c1ccccc1Cl [MLS000038506] | 1.13
c1ccc(-n2ncc3c2ncn2nc(-c4ccco4)nc32)cc1 [MLS000041701] | 8.01
COC(=O)N(c1ccc(OC)cc1)P1(=S)OCCC(C)O1 (stereo not given) [MLS000043492] | 1.02
Cc1ccccc1OCc1nc(-c2ccc(NC(=O)c3ccc4c(c3)OCO4)cc2)no1 [MLS000047257] | 4.58
CC(=O)c1cccc(NC(=O)c2cc(-c3ccc(C)cc3)on2)c1 [MLS000050755] | 13.3
O=C(CCN1C(=O)c2ccccc2C1=O)Nc1ccc(-c2nc3ccccc3o2)cc1 [MLS000051238] | 5.8
COc1cc(C(=O)Nc2oc(-c3ccccc3)c(-c3ccccc3)c2C#N)cc(OC)c1OC [MLS000051579] | 6.05
Cc1cc(C)c2oc(-c3ccc(Cl)c(NC(=O)c4ccc(C#N)cc4F)c3)nc2c1 [MLS000052597] | 2.73
COC(=O)N(c1ccccc1)P1(=S)OCCO1 [MLS000052970] | 2.06
O=C(Nc1nc(-c2ccncc2)cs1)c1ccco1 [MLS000053154] | 5.64
N#Cc1c(NC(=O)CN2CCN(S(=O)(=O)c3ccc4c(c3)OCCO4)CC2)sc2c1CCC2 [MLS000053165] | 3.48
Cn1ccnc1P(=S)(c1nccn1C)N1CCOCC1 [MLS000054793] | 11.8
Cc1cccc(-n2c(N)c(C(=O)N3CCN(C)CC3)sc2=S)c1 [MLS000056753] | 45.1
CC(C)Cn1c(SCC(=O)NC(=O)Nc2ccc3c(c2)OCCO3)nc2ccccc2c1=O [MLS000057544] | 4.47
Cc1sc(NC(=O)c2oc3ccccc3c2C)c(C#N)c1C [MLS000065828] | 10.8
CCCc1cc(C(N)=O)c(NC(=O)C2CCCO2)s1 (stereo not given) [MLS000065925] | 1.89
COc1ccc(OC)c(C=Nc2oc(-c3ccco3)c(-c3ccco3)c2C#N)c1 [MLS000068778] | 4.02
Cc1ccc(NC(=O)CSc2nnc(-c3ccc(S(=O)(=O)N4CCCC4)cc3)o2)cc1C [MLS000071775] | 12.3
O=C(NC1CCS(=O)(=O)C1)c1c(NC(=O)C2COc3ccccc3O2)sc2c1CCCC2 (stereo not given) [MLS000077500] | 46.3
CCC1CC2(C)NC(=O)c3c(sc4c3CC(C)(C)OC4)N2C1=O (stereo not given) [MLS000077638] | 2.88
Cc1cccc(N2CSC3=C(C#N)C(c4ccc(C)o4)CC(=O)N3C2)c1 (stereo not given) [MLS000080648] | 0.434

Structure (SMILES) | IC50 [µM]
COc1cc(OC)c(C2CC(=O)N3CN(c4ccccc4C)CSC3=C2C#N)cc1OC (stereo not given) [MLS000080656] | 4.51
O=S(=O)(NS1=CC=CCN1S(=O)(=O)c1ccccc1)c1ccccc1 (stereo not given) [MLS000081951] | 4.33
CCOC(=O)Cc1csc(-n2sc3ccccc3c2=O)n1 [MLS000082162] | 0.598
CC(C)c1nc2sc3c(SCC(=O)NCc4ccco4)ncnc3c2c2c1CCC2 [MLS000082582] | 2.28
CC(C)Sc1nc2sc3c(c2c2nnc(SCC(=O)NCc4ccco4)n12)CCCC3 [MLS000082957] | 3.01
COc1cccc(OC)c1-c1nn2c(-c3cc(-c4ccccc4)n[nH]3)nnc2s1 [MLS000083027] | 3.81
O=C(CSc1nnnn1-c1ccccc1)Nc1nsc(-c2ccc(Cl)cc2)n1 [MLS000085595] | 15.7
CCOC(=O)N(c1ccccc1)P1(=S)OCCO1 [MLS000090301] | 3.25
CCCSc1nc2c(cnn2-c2ccc(Cl)cc2)c(=O)[nH]1 [MLS000091828] | 9.64
COc1cccc(OCC(=O)Nc2c(C(=O)Nc3ccc(OC)cc3OC)oc3ccccc23)c1 [MLS000093002] | 1.77
CCOC(=O)c1sc(=S)n2c1[nH]c(=O)c1ccc(C(=O)OC)cc12 [MLS000094734] | 0.648
CC(C)C1N=C2c3ccccc3N=C(SCC(=O)c3ccc(O)c(O)c3)N2C1=O (stereo not given) [MLS000094866] | 0.59
CCCCC(CC)Cn1c2nc3ccccc3nc2c2c(=N)oc(C)nc21 (stereo not given) [MLS000098038] | 2.33
O=C(CSc1nc2sc3c(c2c(=O)n1-c1ccccc1)CCCC3)NCc1ccco1 [MLS000115858] | 17.2
CCCc1cc(C(=O)Nc2sc3c(c2C#N)CCC3)no1 [MLS000116386] | 2.8
CC(C)Cc1cc(C(=O)Nc2sc3c(c2C#N)CCCC3)no1 [MLS000116410] | 4.76
CC(C)c1ccc(C2CC(=O)N3CN(C)CSC3=C2C#N)cc1 (stereo not given) [MLS000117258] | 10.7
COc1ccc(N2CSC3=C(C#N)C(c4cc(OC)c(OC)cc4OC)CC(=O)N3C2)c(OC)c1 (stereo not given) [MLS000117261] | 11.9
COc1ccc(OC)c(CCNC(=O)Cn2sc3nc(C)cc(C)c3c2=O)c1 [MLS000118887] | 3.08
CC(=O)N(Cc1cc(=O)[nH]c2ccccc12)c1cccc(C)c1 [N-(3-methylphenyl)-N-[(2-oxidanylidene-1H-quinolin-4-yl)methyl]ethanamide] | 5.08
CCC(C)c1ccc2oc(-c3ccc(NC(=O)c4nnc[nH]4)cc3)nc2c1 (stereo not given) [N-[4-(5-sec-butyl-1,3-benzoxazol-2-yl)phenyl]-1H-1,2,4-triazole-3-carboxamide] | 6.07
COc1ccc(OC)c(S(=O)(=O)Nc2ccc(O)c(Sc3nc[nH]n3)c2)c1 [N-[4-hydroxy-3-(1H-1,2,4-triazol-3-ylthio)phenyl]-2,5-dimethoxybenzenesulfonamide] | 2.46
COC(=O)c1ccccc1S(=O)(=O)N(Cc1cc2cc3c(cc2[nH]c1=O)OCO3)C1CCCCC1 [SMR000002998] | 21.1
CCC(C)Sc1nc2c(c(=O)[nH]c(=O)n2C)n1CC(O)COc1cccc2ccccc12 (stereo not given) [SMR000009990] | 4
CC1=C(SCCC#N)S/C(=C2\SC(C)=C(SCCC#N)S2)S1 [SMR000011057] | 2.8
COC(=O)c1cccc(N2C(=O)C(Cl)=C(N3CCOCC3)C2=O)c1 [SMR000014938] | > 50
COc1ccc(-n2c(SCC(=O)N3CCCC3)nc3c([nH]c4ccccc43)c2=O)cc1 [SMR000018494] | 16.6
